For one assay, the system named is Male SHRs. The assay can be described thus: Antihypertensive effect: mean blood pressure in SHRs after oral administration. The format is in vivo, rat. The conditions noted are these: SHR, during 24 hours after administration. As to the method: Male SHRs (28-40 weeks old, Japan SLC, Inc., Japan) were anesthetized with sodium pentobarbital (50 mg/kg, i.p.). The left femoral artery was cannulated with a polyethylene catheter filled with saline comprising heparin (200 U/mL). The catheter was exteriorized at the back of the neck and each SHR was individually housed in a cage and left two or four days to recover. The mean blood pressure (MBP) was obtained from the systemic blood pressure which was monitored from the femoral artery using a pressure transducer connected to a polygraph system (Nihon Kohden Corporation). The heart rate was measured from the blood pressure pulse intervals. The rats which had MBP over 150 mmHg were used for the experiment. When the blood pressure had stabilized, vehicle (0.5 w/v % methylcellulose) or compounds were orally administered. All compounds were suspended in 0.5 w/v % methylcellulose and orally administered at a volume of 2 mL/kg. The MBP was measured during 24 hours after the administration.

In a further assay the test system is Male Wistar fatty rats. Kind of assay: Plasma triglyceride and glucose lowering in Wistar fatty rats, oral, once a day for 2 weeks. Format: in vivo, rat. Conditions: versus vehicle group. The protocol:
Male 25-31 weeks-old Wistar fatty rats (Takeda Pharmaceutical Company) were divided to each group with equalization of plasma levels of triglyceride, glucose and body weight in fed condition. The groups of rats were treated with vehicle (0.5 w/v % methylcellulose) or compounds. All compounds were suspended in 0.5 w/v % methylcellulose and orally administered at a volume of 2 mL/kg, once a day for 2 weeks. The next day of the final administration, blood was collected from the tail vein to measure plasma parameters. Heparin was used as an anticoagulant. Plasma levels of triglyceride and glucose were measured enzymatically using Hitachi Autoanalyser 9000. The inhibition rates from vehicle treatment group were calculated for each compound after the treatment for 2 weeks.

For another assay, the target named is human AT1 receptor (Homo sapiens (Human), UniProt P30556). Kind of assay: AT1 receptor antagonistic activity: [125I]-angiotensin II binding assay with AT1 membrane. The conditions noted are these: 22.5 pM [125I]-angiotensin II, human AT1 receptor-expressing CHO-K1 membrane, 1 hr room temperature. The protocol: Evaluation of AT1 Receptor Antagonistic Activity
human AT1 receptor, sequence (P30556 whole entry): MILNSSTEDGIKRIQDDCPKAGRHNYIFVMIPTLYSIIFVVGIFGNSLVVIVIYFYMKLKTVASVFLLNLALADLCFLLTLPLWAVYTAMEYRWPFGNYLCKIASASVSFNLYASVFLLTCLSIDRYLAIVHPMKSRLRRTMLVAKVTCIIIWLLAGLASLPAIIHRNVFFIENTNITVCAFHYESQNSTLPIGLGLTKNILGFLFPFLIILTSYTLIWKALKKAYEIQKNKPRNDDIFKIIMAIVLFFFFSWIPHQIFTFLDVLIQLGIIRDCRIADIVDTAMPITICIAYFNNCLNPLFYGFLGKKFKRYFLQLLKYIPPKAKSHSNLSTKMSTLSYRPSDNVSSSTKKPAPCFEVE
(1) Preparation of Human AT1 Receptor-Expressing CHO-K1 Cellular Membrane Fraction
CHO-K1 cell (RIKEN, Japan) capable of stable expression of human AT1 receptor was cultured, recovered, suspended in homogenize buffer (10 mM NaHCO3 (pH 7.4), 5 mM EDTA, 1× Complete EDTA free) [manufactured by Roche, Switzerland], and homogenized. The homogenate was centrifuged at low-speed (900×g, 10 min, 4° C.), and the supernatant was recovered and ultracentrifuged (90,000×g, 1 hr, 4° C.). The supernatant was discarded, and the pellets were resuspended in suspension buffer (50 mM Tris (pH 7.4), 1 mM EDTA, 1× Complete EDTA free).
(2) Evaluation of AT1 Receptor Antagonistic Activity
(9 μg) in the presence of AT1 membrane and test compound in 100 μL (total reaction volume) of reaction buffer (50 mM Tris (pH 7.4), 10 mM MgCl2 supplemented or not supplemented with 0.3 mg/mL fatty acid-free bovine serum albumin [manufactured by Wako Pure Chemical Industries, Ltd., Japan]). The reaction mixture was incubated in 96 well polypropylene plate for 1 hr at room temperature, and the reaction was quenched by rapid filtration (96 well cell harvester) through a GF/C filter treated with wash buffer (50 mM Tris (pH 7.4)). Subsequently, the filter was washed 5 times with 0.3 mL of ice-cooled wash buffer. […] Total binding was measured in the presence of 1% DMSO and nonspecific binding was measured in the presence of 1 μM Candesartan.

The mark [1] stands for this setting: 10 mg/kg once a day for 2 weeks.
Setting [2] is: 30 mg/kg once a day for 2 weeks.

As to `CCCc1c(Cc2ccc(-c3ccccc3-c3noc(=O)[nH]3)cc2F)c(=O)n(C2CCC(OC(C)C(C)(C)O)CC2)c2ncnn12` (single isomer, unassigned; (+)) [Example 458, hydrate], the “Maximum MBP reduction (mmHg)” value in the assay on Male SHRs (dose 30 mg/kg) was found to be 70 mmHg. Besides, the entries for the “Inhibition rate of plasma glucose (%)” value with Male Wistar fatty rats (3 mg/kg once a day for 2 weeks), in the assay on Male Wistar fatty rats (setting [1]) and in the assay on Male Wistar fatty rats (setting [2]) were −0.2%, 6.9% and 43.3%, respectively. Moreover, the “Inhibition rate of plasma triglyceride (%)” value in the assay on Male Wistar fatty rats (3 mg/kg once a day for 2 weeks) was 33.5%; in the assay on Male Wistar fatty rats (setting [1]), 39.0%; with Male Wistar fatty rats (setting [2]), 59.2%.

In the case of `CCCc1c(Cc2ccc(-c3ccccc3-c3noc(=O)[nH]3)cc2)c(=O)n([C@H]2CC[C@H](OCC(C)(C)O)CC2)c2ccnn12.[K]` [Example 415, 4-[trans-4-(2-hydroxy-2-methylpropoxy)cyclohexyl]-6-{[2′-(5-oxo-4,5-dihydro-1,2,4-oxadiazol-3-yl)biphenyl-4-yl]methyl}-7-propylpyrazolo[1,5-a]pyrimidin-5(4H)-one potassium salt], the “Maximum MBP reduction (mmHg)” value with Male SHRs (dose 3 mg/kg) amounted to 63 mmHg. For the same compound, in the assay on Male Wistar fatty rats (3 mg/kg once a day for 2 weeks), the “Inhibition rate of plasma glucose (%)” value came out at 25.1% and the “Inhibition rate of plasma triglyceride (%)” value amounted to 38.1%. For the same compound, in the assay with Male Wistar fatty rats (setting [1]), the “Inhibition rate of plasma glucose (%)” value came out at 54.3% and the “Inhibition rate of plasma triglyceride (%)” value is recorded as 57.7%.

At human AT1 receptor, `CCCc1c(Cc2ccc(-c3ccccc3-c3noc(=O)[nH]3)cc2)c(=O)n([C@H]2CC[C@H](OCC(C)(C)O)CC2)c2ccnn12` [Example 413, 4-[trans-4-(2-Hydroxy-2-methylpropoxy)cyclohexyl]-6-{[2′-(5-oxo-4,5-dihydro-1,2,4-oxadiazol-3-yl)biphenyl-4-yl]methyl}-7-propylpyrazolo[1,5-a]pyrimidin-5(4H)-one] returned a 50% inhibitory concentration (IC50) of 1.6 nM. Besides, the “Maximum MBP reduction (mmHg)” value with Male SHRs (dose 10 mg/kg) is reported as 79 mmHg. Moreover, the “Inhibition rate of plasma glucose (%)” value with Male Wistar fatty rats (3 mg/kg once a day for 2 weeks) stood at 6.5%; in the assay on Male Wistar fatty rats (setting [1]), 19.1%; in the assay on Male Wistar fatty rats (setting [2]), 53.3%. In addition, the “Inhibition rate of plasma triglyceride (%)” value with Male Wistar fatty rats (3 mg/kg once a day for 2 weeks) was 12.0%; in the assay with Male Wistar fatty rats (setting [1]), 21.5%; with Male Wistar fatty rats (setting [2]), 46.0%.

Usually IC50 stands for the concentration at which inhibition is half-maximal. Low values mean inhibition by little substance, high ones a need for much substance.

The values above are taken from patent US8592431B2, “Fused ring compound and use thereof” (Takeda Pharmaceutical Company Limited, priority 2009, dated 2013).
